Blank lines part the entries; values can stand above or below the molecule they belong to. Ends that are not written are not given here. Peptide text beside a SMILES is read from it. * marks the point of attachment. Cbz = O=C(OCc1ccccc1)*
Legend:
[1] = system: Ang-(1-7) and Ang II formation from Ang I (NEP, PEP, ACE) in murine kidney homogenates; type: biochemical, mouse
Experimental: (§1) Angiotensin peptide quantification by liquid chromatography tandem-mass spectrometry analysis (LC-MS/MS) was performed by Attoquant Diagnostics GmbH (Vienna, Austria) as previously described.

[2] = system: Ang-(1-7) and Ang II formation from Ang I (NEP, PEP, ACE, chymase) in human kidney homogenates
Experimental: (§2) This study was approved by the Ethics Committee of the Medical University of Vienna (EK #1496/2014) and was performed in accordance to the good clinical practice guidelines. Written informed consent was obtained before biopsies were taken perioperative from 5 kidney donors in 2014. Renal biopsies were either snap frozen in liquid nitrogen for angiotensin metabolism analysis or fixed in formalin for histological examination.
Metabolic RAS analysis was performed by Attoquant Diagnostics GmbH, Vienna, Austria. Renal biopsies of mice and humans were extracted and homogenized in phosphate-buffered saline (PBS) using low-energy sonication. The metabolism of spiked Ang I, Ang II (Fisher Scientific) or recombinant murine AGT (Sino Biological Inc.) for the renin activity assay, respectively, was assayed in homogenates after ex vivo incubation at 37 °C in presence or absence of specific enzyme inhibitors. […] Aminopeptidase Inhibitor (10 μM, Sigma-Aldrich) was added to all samples.
The enzyme activity was calculated by determining the inhibitor sensitive part of product formation in incubated samples and is presented as a product formation in ng of the corresponding angiotensin product per μg protein per hour. In order to proof linearity of the assay in dependence of enzyme abundance, Ang I and Ang II metabolism were assayed in serial diluted kidney homogenates (Supplementary Fig. 6). All experiments were performed in the linear range of the assay.
as §1

NEP = molecular target: T1, NEP (Mus musculus, UniProt Q61391); test: MALDI-Imaging of Ang I to Ang-(1-7) turnover in murine kidney cryo-sections; type: biochemical
T1 construct: Consecutive tissue sections were prepared from fresh frozen kidneys (n = 4); from tissue; host or cells: murine kidney cryo-sections (fresh frozen)
T1 sequence (Q61391 1-750): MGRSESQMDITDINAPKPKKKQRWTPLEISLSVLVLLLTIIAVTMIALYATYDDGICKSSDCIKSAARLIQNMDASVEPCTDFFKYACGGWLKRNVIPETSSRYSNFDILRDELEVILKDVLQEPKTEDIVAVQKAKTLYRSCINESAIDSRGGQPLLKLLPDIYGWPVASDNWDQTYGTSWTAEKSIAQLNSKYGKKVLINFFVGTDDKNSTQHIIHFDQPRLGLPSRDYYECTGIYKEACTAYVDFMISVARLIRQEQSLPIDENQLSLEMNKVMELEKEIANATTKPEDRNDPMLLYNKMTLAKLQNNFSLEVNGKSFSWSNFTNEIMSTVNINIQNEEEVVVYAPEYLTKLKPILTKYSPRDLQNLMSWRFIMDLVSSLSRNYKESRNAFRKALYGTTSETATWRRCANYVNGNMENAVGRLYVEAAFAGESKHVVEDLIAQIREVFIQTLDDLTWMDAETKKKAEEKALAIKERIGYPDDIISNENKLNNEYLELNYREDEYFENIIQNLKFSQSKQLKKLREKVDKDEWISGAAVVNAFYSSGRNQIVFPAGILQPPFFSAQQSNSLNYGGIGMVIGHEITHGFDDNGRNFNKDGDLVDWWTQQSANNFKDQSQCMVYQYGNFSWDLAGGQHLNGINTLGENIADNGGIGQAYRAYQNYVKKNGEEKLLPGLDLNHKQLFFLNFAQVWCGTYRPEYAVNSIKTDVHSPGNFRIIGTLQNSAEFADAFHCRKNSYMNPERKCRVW
Experimental: Consecutive tissue sections were prepared from fresh frozen kidneys (n = 4) as previously described[37] and incubated with 772 μM Ang I at 37 °C for 5 min. […] The imaging technique is described in detail elsewhere.

[3] = system: murine kidney angiotensin levels; test: Renal angiotensin metabolites in mice treated i.p. with NEP inhibitor; type: in vivo, mouse; conditions: 50 mg/kg i.p.
Experimental: (§3) 10 to 12 weeks old female wild-type with C57BL/6j background were maintained at the animal care facility of the University Duesseldorf, Germany under a 12 h light/dark cycle, normal chew (SNIFF, Soest) and tap water ad libitum. Vehicle (50% DMSO) or NEP-inhibitor (LBQ657 (Sigma-Aldrich): 50 mg/kg) were administrated i.p. 4 hours prior to kidney and heparin plasma sampling. Kidneys were obtained as given above, while heparin plasma was incubated for 30 min at 37 °C for equilibrium analysis, stabilized[38] and stored at −80 °C until shipment.
as §1

[4] = system: murine plasma equilibrium angiotensin levels; test: Equilibrium plasma angiotensin metabolites in mice treated i.p. with NEP inhibitor; type: in vivo, mouse; conditions: 50 mg/kg i.p., 4 hours, mean ± s.e.m., n = 5
Experimental: as §3, §1

ACE = conditions: cited from earlier work
[5] = system: Ang-(1-7) formation from Ang II (ACE2, PCP) in human kidney homogenates; test: Ang II turnover to Ang-(1-7) in human kidney biopsy homogenates; type: biochemical; conditions: human kidney biopsy homogenate, inhibitor sensitive formation rate of Fig. 2d, mean ± s.d., n = 5
Experimental: as §2
Metabolic RAS analysis was performed by Attoquant Diagnostics GmbH, Vienna, Austria. Renal biopsies of mice and humans were extracted and homogenized in phosphate-buffered saline (PBS) using low-energy sonication. The metabolism of spiked Ang I, Ang II (Fisher Scientific) or recombinant murine AGT (Sino Biological Inc.) for the renin activity assay, respectively, was assayed in homogenates after ex vivo incubation at 37 °C in presence or absence of specific enzyme inhibitors. […]
The enzyme activity was calculated by determining the inhibitor sensitive part of product formation in incubated samples and is presented as a product formation in ng of the corresponding angiotensin product per μg protein per hour. […]
as §1

[6] = system: Ang-(1-7) formation from Ang II (ACE2, PCP) in murine kidney homogenates; test: Ang II turnover to Ang-(1-7) in murine kidney homogenates with and without enzyme inhibitors; type: biochemical, mouse; conditions: Ang II spike, 37 °C, LC-MS/MS, n = 4
Experimental: as §1

CES1 = conditions: liver; cited from earlier work
[7] = mouse kidney homogenate, Ang I spike, 37 °C, lisinopril 10 μM, LC-MS/MS, n = 4
[8] = 4 hours prior to sampling, LC-MS/MS, mean ± s.e.m., n = 5
[9] = ratio of renal levels, 4 hours, mean ± s.e.m., n = 5
[10] = heparin plasma incubated 30 min at 37 °C, LC-MS/MS
[11] = ratio of equilibrium plasma levels

Effect on Ang II formation from Ang I [1, 7]: efficiently blocked
Effect on Ang-(1-7) formation from Ang I [1, 7]: remained unaffected
Molecule: NCCCC[C@H](N[C@@H](CCc1ccccc1)C(=O)O)C(=O)N1CCC[C@H]1C(=O)O [lisinopril]
Effect on Ang II formation from Ang I ([2]; human kidney biopsy homogenate, Ang I spike, 37 °C, lisinopril 10 μM, LC-MS/MS, n = 5): not able to completely abolish Ang II formation
Ang-(1-7) signal with increasing inhibitor concentration (NEP; murine kidney slices incubated with Ang I, lisinopril 0 μM–10 μM, MALDI-Imaging): concentration dependent increase of Ang-(1-7)

Molecule: C[C@H](C[C@@H](Cc1ccc(-c2ccccc2)cc1)NC(=O)CCC(=O)O)C(=O)O [LBQ657]
Renal Ang I [3, 8]: 277 ± 31 pg/g
Renal Ang II [3, 8]: 642 ± 99 pg/g
Renal Ang-(1-7) [3, 8]: 35 ± 4 pg/g
Renal Ang-(1-9) [3, 8]: 162 ± 10 pg/g
Renal Ang-(2-8) [3, 8]: 195 ± 28 pg/g
Renal Ang-(2-10) [3, 8]: 89 ± 16 pg/g
Reduction of Ang-(1-7) levels in the murine kidney ([3]; 4 hours prior to sampling, LC-MS/MS, p = 0.026): 53.1 ± 10.6%
Renal Ang-(1-7)/Ang I (x100) [3, 9]: 13.4 ± 2.0
Renal Ang-(1-7)/Ang II (x100) [3, 9]: 6.1 ± 1.2
Equilibrium plasma Ang I [4, 10]: 970 ± 341 pg/mL
Equilibrium plasma Ang II [4, 10]: 1423 ± 540 pg/mL
Equilibrium plasma Ang-(1-5) [4, 10]: 73 ± 34 pg/mL
Equilibrium plasma Ang-(1-7) [4, 10]: 20 ± 7 pg/mL
Equilibrium plasma Ang-(2-8) [4, 10]: 269 ± 91 pg/mL
Equilibrium plasma Ang-(3-8) [4, 10]: 114 ± 36 pg/mL
Equilibrium plasma Ang-(1-7)/Ang I (x100) [4, 11]: 1.8 ± 0.2
Equilibrium plasma Ang-(1-7)/Ang II (x100) [4, 11]: 1.5 ± 0.2

Molecule: O=C(O)CNC(=O)C(CS)Cc1ccccc1 (racemic) [DL-thiorphan]
Reduction of Ang-(1-7) formation from Ang I ([1]; mouse kidney homogenate, Ang I spike, 37 °C, DL-thiorphan 100 μM used only in combination with lisinopril 10 μM, LC-MS/MS): 75.2 ± 1.8%
Effect on turnover from Ang I to Ang-(1-7) ([1]; mouse kidney homogenate, DL-thiorphan 100 μM with lisinopril 10 μM, n = 4): reduced significantly
Effect on turnover from Ang I to Ang-(1-7) ([2]; human kidney biopsy homogenate, DL-thiorphan 100 μM with lisinopril 10 μM, n = 5): reduced significantly
Effect on Ang-(1-7) formation from Ang I, MALDI-Imaging intensity (NEP; murine kidney cryo-sections, 772 μM Ang I, 37 °C, 5 min, 100 μM DL-thiorphan in presence of 10 μM lisinopril, n = 4, p = 0.045 vs. 10 μM lisinopril): significant reduction of Ang-(1-7) formation from Ang I
ACE inhibitory activity (ACE): weak ACE inhibitory activity

Molecule: CC(C)C[C@H](NC(=O)[C@@H](NC(=O)N[C@@H](Cc1ccccc1)C(=O)O)[C@@H]1CCN=C(N)N1)C(=O)N[C@H](C=O)Cc1ccccc1 [chymostatin]
Effect on ACE independent Ang II formation from Ang I ([2]; human kidney biopsy homogenate, Ang I spike, 37 °C, chymostatin 10 μM, LC-MS/MS, n = 5): At least a part of ACE independent Ang II formation was blocked

Enzymatic contribution of ACE2, Ang II to Ang-(1-7) [5]: 88.2 ± 4.3%
Molecule: CC[C@H](C)[C@H](NC(=O)[C@H](Cc1ccc(O)cc1)NC(=O)[C@@H](NC(=O)[C@H](CCCNC(=N)N)NC(=O)[C@@H](N)CC(=O)O)C(C)C)C(=O)N[C@@H](Cc1cnc[nH]1)C(=O)N1CCC[C@H]1C(=O)N[C@@H](Cc1ccccc1)C(=O)O [Ang II, angiotensin II]

Enzymatic contribution of NEP, Ang I to Ang-(1-7) [1]: 50 ± 1%
Enzymatic contribution of PEP, Ang I to Ang-(1-7) [1]: 23 ± 1%
Share of Ang I converted directly to Ang-(1-7) [1]: 73.4 ± 2.1%
Share of Ang I metabolized to Ang II (ACE) [1]: 26.6 ± 2.1%
Enzymatic contribution of ACE, Ang I to Ang II [2]: 25 ± 7%
Enzymatic contribution of NEP, Ang I to Ang-(1-7) [2]: 63 ± 10%
Enzymatic contribution of PEP, Ang I to Ang-(1-7) [2]: 10 ± 3%
Enzymatic contribution of chymase, Ang I to Ang II [2]: 2 ± 2%
Share of Ang I converted to Ang II [2]: 27 ± 9%
Share of Ang I converted to Ang-(1-7) [2]: 73 ± 9%
Molecule: DRVYIHPFHL [Ang I, angiotensin I]

Effect on Ang-(1-7) formation from Ang II, ACE2 KO kidney ([6]; ACE2 KO mouse kidney homogenate in PBS, MLN-4760 10 μM, aminopeptidase inhibitor 10 μM in all samples): no effect
Molecule: CC(C)C[C@H](N[C@@H](Cc1cncn1Cc1cc(Cl)cc(Cl)c1)C(=O)O)C(=O)O [MLN-4760]
Effect on Ang-(1-7) formation from Ang II, wild-type kidney ([6]; wild-type mouse kidney homogenate in PBS, MLN-4760 10 μM): reduced Ang-(1-7) formation in wild-type mice to the level of ACE2 KOs

Molecule: CCOC(=O)[C@H](C)C[C@@H](Cc1ccc(-c2ccccc2)cc1)NC(=O)CCC(=O)O [AHU-377]
Activation of the prodrug (CES1): physiologically activated in the liver by CES1

Molecule: O=C[C@@H]1CCCN1C(=O)[C@@H]1CCCN1C(=O)OCc1ccccc1 [ZPP, N-benzyloxycarbonyl-prolyl-prolinal] (Cbz-Pro-Pro-aldehyde)
Effect on Ang-(1-7) formation from Ang II, ZPP added to MLN-4760 ([6]; mouse kidney homogenate, ZPP 20 μM in addition to MLN-4760 10 μM): abolished Ang-(1-7) formation completely
Effect on Ang-(1-7) formation from Ang I, ZPP on top of lisinopril and DL-thiorphan ([1]; mouse kidney homogenate, Ang I spike, 37 °C, ZPP 20 μM, LC-MS/MS, n = 4): further significantly reduced Ang-(1-7) formation

Reference: PMC5030486, “Neprilysin is a Mediator of Alternative Renin-Angiotensin-System Activation in the Murine and Human Kidney” (Scientific Reports, 2016)
